The format of the data set is in vivo, BALB/c mice. As to conditions: 20 mg/kg. The protocol:
BALB/c mice of either gender aged 7 to 9 weeks weighing between 18 to 30 g were employed in this study. The mice were obtained from the Centre for Comparative Medicine Research, The University of Hong Kong. They were housed in a 12-h light/12-h dark cycle with food and water supplied ad libitum. All the animal experiments were performed with the approval from the Committee on the Use of Live Animals in Teaching and Research, The University of Hong Kong (CULATR 4921-19, approved on 1 February 2019).
The mice were randomly divided into two treatment groups (n = 45 per group, five mice per time point, nine time points in total). The intravenous (IV) group received capreomycin (sulfate) solution prepared in normal saline (4 mg/mL) via tail vein injection at a dose of 20 mg/kg. Intratracheal (IT) group received the C25_T90 formulation as powder aerosol intratracheally as previously described. In brief, the powder was loaded in a 200 µL gel loading pipette tip, which was connected with a three-way stopcock and 1 mL syringe. The pipette tip was inserted into the trachea of mice under anesthesia. The powder was dispersed into the lungs of mice by 0.6 mL of air in the syringe. After each powder insufflation, the pipette tip was removed and rinsed with 1 mL ultra-pure water. The rinsing solution was assayed by HPLC to calculate the residual mass of capreomycin in the tip. The delivered mass of capreomycin was calculated as drug content in the loaded mass of powder minus the residual mass of capreomycin in the tip. The insufflation efficiency (%) was the ratio of delivered mass of capreomycin to the loaded mass of capreomycin. According to a preliminary study, the insufflation efficiency of C25_T90 formulation was around 80% (unpublished data). […] The delivered dose within 17.5 to 22.5 mg/kg was considered successful administration, and mice that received dose outside this range were excluded. At 5 min, 15 min, 30 min, 1 h, 2 h, 4 h, 6 h, 8 h, and 24 h post-administration, the mice were euthanized with overdose pentobarbital (200 mg/kg). The whole blood was collected by cardiac puncture, followed by centrifugation at 13,000 rpm for 10 min to obtain the plasma. The lungs were collected and frozen in liquid nitrogen immediately. The plasma and lung tissues were stored at −80 °C until further analysis.
The extraction of capreomycin from plasma and tissue homogenates was performed according to a previous study with minor modification. Tissue homogenates were obtained by homogenizing the tissue with sterile water. A volume of 1 µL perchloric acid was added to a microcentrifuge tube containing 100 µL of plasma or tissue homogenates to induce protein precipitation. The mixtures were vortexed for 10 min and centrifuged at 16,000× g for 10 min. The supernatant was collected and neutralized with 110 µL basic mix of 1:10 KOH/K2HPO4 solution. The obtained mixtures were then vortexed, followed by centrifugation at 16,000× g for 15 min. The supernatant was transferred to glass vials for HPLC analysis. A standard curve was obtained by spiking known concentrations of capreomycin (0.6 to 40.0 µg/mL) into blank plasma or blank lung tissue homogenate followed by treatment as mentioned above. HPLC was performed using a C18 column (5 μm, 4.6 × 250 mm, Agilent, Santa Clara, CA, USA) with a guard cartridge. In this HPLC method, HFBA replaced TFA to improve peak resolution of the samples. The mobile phase consisted of 0.1% HFBA in ultrapure water (solvent A) and 0.1% HFBA in HPLC grade acetonitrile (solvent B), pumped at 1 mL/min under the following gradient: 0 to 2 min, 80% A; 2 to 22 min, 80–20% A; 22 to 25 min, 20% A (v/v). A volume of 50 µL sample was injected and capreomycin was detected by UV absorption at 268 nm. Capreomycin eluted at approximately 9.7 min with this method. […]

Where [1] appears, read: lung tissue, intravenous solution.
[2] abbreviates: lung tissue, intravenous, solution in normal saline, HPLC-UV, noncompartmental, mean ± SD, n = 5.
Setting [3] is: lung tissue, intravenous, solution in normal saline, HPLC-UV, noncompartmental, mean ± SD, only three sets of data.
Setting [4] is: plasma, intravenous, solution in normal saline, HPLC-UV, noncompartmental, mean ± SD, n = 5.

Read-outs that look alike come from different tables or passages of the source. Marks after values point to notes of the source that are not given here.

Turning to Capreomycin, under setting [1], the “Time after administration at which capreomycin was no longer detectable in the lung” value worked out at 1 h and the “Time to Cmax” value is at most 20 min. Further, under setting [2], the “AUC0–t” value was 6710 ± 510 ng·h/mL, the Cmax was found to be 18.23 ± 8.34 µg/g, the MRT came to 13.8 ± 7.8 min and the time to peak (Tmax) was 7.2 ± 4.2 min. Under setting [3], the “AUC0–∞” value is on record as 7.78 ± 0.46 ^b µg·h/mL, the Kel is 2.37 ± 0.23 ^b h^−1 and the t1/2 is recorded as 0.29 ± 0.03 ^b h. Further, under setting [4], the Cmax stood at 74.89 ± 10.94 µg/mL, the “AUC0–t” value is 32550 ± 5520 ng·h/mL, the “AUC0–∞” value was 33.78 ± 5.54 µg·h/mL and the Kel was found to be 2.74 ± 1.67 h⁻¹. Moreover, under setting [4], the t1/2 was 0.34 ± 0.20 h. For the same substance, the “Tmax” value (plasma, intravenous solution) is on record as at most 10 min.

What is called Cmax is the maximum level reached in the sampled fluid or tissue. For orientation: MRT means a mean duration of stay, worked out from the concentration-time curve. Usually Tmax stands for the time at which the peak concentration occurs.
